Assay results from patent US20250236616A1, “IMMUNOMODULATING AZALIDES” (Zoetis Services LLC, priority 2021, published 2025).

Tests used:
[1] = system: IL-1β; assay: Whole bovine blood assay, LPS-induced IL-1β (inhibition / overstimulation); type: cell-based; conditions: Bos taurus, 18 h, drug concentration giving overstimulation (OS) of LPS-induced IL-1β, top concentration 250 μM
Summary of the method: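 Fresh heparinized bovine whole blood was preincubated with compound at varying concentrations for 4 h at 37 °C, then stimulated with 1 μg/mL LPS for 18 h. Plasma IL-1β was measured by MSD chemiluminescent immunoassay and normalized to total protein. Values cover inhibition and concentration-dependent overstimulation.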

[2] = system: TNF-α; assay: Whole bovine blood assay, LPS-induced TNF-α; type: cell-based; conditions: Bos taurus, fresh whole bovine blood, LPS stimulant; top drug concentration 250 μM
Summary of the method: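 Fresh heparinized bovine whole blood was preincubated with compound 4 h at 37 °C, then stimulated with LPS (final 1 μg/mL) for 18 h at 37 °C. Plasma TNF-α was quantified by MSD U-Plex chemiluminescent immunoassay, normalized to total protein (BCA), and IC50 taken for LPS-induced TNF-α inhibition.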

Row | SMILES | minimal effective concentration [1] [µM] | IC50 [2] [µM]
1 | CCCNC[C@]1(O)[C@H](C)O[C@@H](O[C@H]2[C@H](C)[C@@H](O[C@@H]3O[C@H](C)C[C@H](N(C)S(=O)(=O)c4ccc(C)cc4)[C@H]3O)[C@](C)(O)C[C@@H](C)CN[C@H](C)[C@@H](O)[C@](C)(O)[C@@H](CC)OC(=O)[C@@H]2C)C[C@@]1(C)OC [Example B-26, N-((2S,3R,4S,6R)-2-(((2R,3S,4R,5R,8R,10R,11R,12S,13S,14R)-2-ethyl-3,4,10-trihydroxy-13-(((2R,4R,5S,6S)-5-hydroxy-4-methoxy-4,6-dimethyl-5-((propylamino)methyl)tetrahydro-2H-pyran-2-yl)oxy)-3,5,8,10,12,14-hexamethyl-15-oxo-1-oxa-6-azacyclopentadecan-11-yl)oxy)-3-hydroxy-6-methyltetrahydro-2H-pyran-4-yl)-N,4-dimethylbenzenesulfonamide] | 16 | 20
2 | CC[C@H]1OC(=O)[C@H](C)[C@@H](O)[C@H](C)[C@@H](O[C@@H]2O[C@H](C)C[C@H](N(C)S(=O)(=O)c3ccccc3)[C@H]2Oc2ccc(OC)cc2)[C@](C)(O)C[C@@H](C)CN[C@H](C)[C@@H](O)[C@]1(C)O [Example A-9, N-((2S,3R,4S,6R)-2-(((2R,3S,4R,5R,8R,10R,11R,12S,13S,14R)-2-ethyl-3,4,10,13-tetrahydroxy-3,5,8,10, 12, 14-hexamethyl-15-oxo-1-oxa-6-azacyclopentadecan-11-yl)oxy)-3-(4-methoxyphenoxy)-6-methyltetrahydro-2H-pyran-4-yl)-N-methylbenzenesulfonamide] | 16 | 4
3 | CC[C@H]1OC(=O)[C@H](C)[C@@H](O[C@H]2C[C@@](C)(OC)[C@](O)(CN3CCCCC3)[C@H](C)O2)[C@H](C)[C@@H](O[C@@H]2O[C@H](C)C[C@H](N(C)S(=O)(=O)Nc3ccc(C(F)(F)F)cc3)[C@H]2O)[C@](C)(O)C[C@@H](C)CN[C@H](C)[C@@H](O)[C@]1(C)O [Example C-11, (2R,3S,4R,5R,8R,10R,11R,12S, 13S, 14R)-2-ethyl-3,4, 10-trihydroxy-13-[(2R,4R,5S,6S)-5-hydroxy-4-methoxy-4,6-dimethyl-5-(piperidin-1-ylmethyl)oxan-2-yl]oxy-11-[(2S,3R,4S,6R)-3-hydroxy-6-methyl-4-[methyl-[[4-(trifluoromethyl)phenyl]sulfamoyl]amino]oxan-2-yl]oxy-3,5,8, 10, 12, 14-hexamethyl-15-oxo-1-oxa-6-azacyclopentadecane] | – | 17
4 | CC[C@H]1OC(=O)[C@H](C)[C@@H](O[C@H]2C[C@@](C)(OC)[C@](O)(CN3CCCCC3)[C@H](C)O2)[C@H](C)[C@@H](O[C@@H]2O[C@H](C)C[C@H](N(C)S(=O)(=O)c3ccc(Cl)cc3)[C@H]2O)[C@](C)(O)C[C@@H](C)CN[C@H](C)[C@@H](O)[C@]1(C)O [Example C-4, 4-chloro-N-((2S,3R,4S,6R)-2-(((2R,3S,4R,5R,8R,10R,11R,12S,13S,14R)-2-ethyl-3,4,10-trihydroxy-13-(((2R,4R,5S,6S)-5-hydroxy-4-methoxy-4,6-dimethyl-5-(piperidin-1-ylmethyl)tetrahydro-2H-pyran-2-yl)oxy)-3,5,8, 10, 12, 14-hexamethyl-15-oxo-1-oxa-6-azacyclopentadecan-11-yl)oxy)-3-hydroxy-6-methyltetrahydro-2H-pyran-4-yl)-N-methylbenzenesulfonamide] | 16 | 5
5 | CCCNC[C@]1(O)[C@H](C)O[C@@H](O[C@H]2[C@H](C)[C@@H](O[C@@H]3O[C@H](C)C[C@H](N(C)S(=O)(=O)Nc4ccc(C(F)(F)F)cc4)[C@H]3O)[C@](C)(O)C[C@@H](C)CN[C@H](C)[C@@H](O)[C@](C)(O)[C@@H](CC)OC(=O)[C@@H]2C)C[C@@]1(C)OC [Example B-50, (2R,3S,4R,5R,8R,10R,11R,12S,13S, 14R)-2-ethyl-3,4,10-trihydroxy-13-[(2R,4R,5S,6S)-5-hydroxy-4-methoxy-4,6-dimethyl-5-(propylaminomethyl)oxan-2-yl]oxy-11-[(2S,3R,4S,6R)-3-hydroxy-6-methyl-4-[methyl-[[4-(trifluoromethyl)phenyl]sulfamoyl]amino]oxan-2-yl]oxy-3,5,8, 10, 12, 14-hexamethyl-15-oxo-1-oxa-6-azacyclopentadecane] | 6 | –
6 | CCCNC[C@]1(O)[C@H](C)O[C@@H](O[C@H]2[C@H](C)[C@@H](O[C@@H]3O[C@H](C)C[C@H](NC)[C@H]3O)[C@](C)(O)C[C@@H](C)CN[C@H](C)[C@@H](O)[C@](C)(O)[C@@H](CC)OC(=O)[C@@H]2C)C[C@@]1(C)OC [Example M9, (2R,3S,4R,5R,8R,10R,11R,12S,13S,14R)-2-ethyl-3,4, 10-trihydroxy-13-(((2R,4R,5S,6S)-5-hydroxy-4-methoxy-4,6-dimethyl-5-((propylamino)methyl)-tetrahydro-2H-pyran-2-yl)oxy)-11-(((2S,3R,4S,6R)-3-hydroxy-6-methyl-4-(methylamino)tetrahydro-2H-pyran-2-yl)oxy)-3,5,8,10,12,14-hexamethyl-1-oxa-6-azacyclopentadecan-15-one] | – | 250
